Test results published in ChEMBL document CHEMBL1144055, “Mathemycin B, a new antifungal macrolactone from actinomycete species HIL Y-8620959” (1999).

Columns and labels:
Format in all cases: functional
Alternaria mali = assay: Antimicrobial activity against Alternaria mali P37 assessed as drug concentration required to form 10 mm zone of inhibition by agar diffusion method
Oculimacula yallundae = assay: Antimicrobial activity against Pseudocercosporella herpotrichoides 008 assessed as drug concentration required to form 10 mm zone of inhibition by agar diffusion method
Botrytis cinerea [1] = assay: Antimicrobial activity against Botrytis cinerea A06 assessed as drug concentration required to form 10 mm zone of inhibition by agar diffusion method
Fusarium culmorum = assay: Antimicrobial activity against Fusarium culmorum assessed as drug concentration required to form 10 mm zone of inhibition by agar diffusion method
Parastagonospora nodorum = assay: Antimicrobial activity against Leptosphaeria nodorum JO2 assessed as drug concentration required to form 10 mm zone of inhibition by agar diffusion method
[2] = Antimicrobial activity against Pellicularia sasakii JO3 assessed as drug concentration required to form 10 mm zone of inhibition by agar diffusion method
Botrytis cinerea [3] = assay: Antimicrobial activity against Botrytis cinerea DO1 assessed as drug concentration required to form 10 mm zone of inhibition by agar diffusion method
Phytophthora infestans = assay: Antimicrobial activity against Phytophthora infestans JO8 assessed as drug concentration required to form 10 mm zone of inhibition by agar diffusion method

Compound | MAC (Alternaria mali) [mg/L] | MAC (Oculimacula yallundae) [mg/L] | MAC (Botrytis cinerea [1]) [mg/L] | MAC (Fusarium culmorum) [mg/L] | MAC (Parastagonospora nodorum) [mg/L] | MAC [2] [mg/L] | MAC (Botrytis cinerea [3]) [mg/L] | MAC (Phytophthora infestans) [mg/L]
C/C1=C\C(C)C(O)/C(C)=C/C(O[C@H]2O[C@H](CO)[C@@H](O)[C@H](O[C@@H]3O[C@H](CO)[C@@H](O)[C@H](O)[C@@H]3O)[C@@H]2O)C(O)C(C)C(O)CC(O)CC(O)C(C)C(O)CC(O)CC(O)C(C)C(O)CC(O)CC(O[C@@H]2O[C@H](C)[C@@H](O)[C@H](N)[C@H]2O)C(C)C(C(C)CC(C)CCCCCCN)OC(=O)CCC(C)C(O)CC/C=C/C(C)C1O (some centres undefined) [MATHEMYCIN B] | 62.5 | 250 | 62.5 | 62.5 | 125 | 62.5 | 62.5 | –
MANCOZEB | – | – | – | – | – | – | – | 62.5
maneb | – | 125 | – | – | – | – | – | –
